Molecular target: human GPR17 short isoform (Homo sapiens, UniProt Q13304)
Experiment: GPR17 cAMP assay (TR-FRET cAMP quantification, antagonist mode)
Type: cell-based
Conditions: CHO-K1 cells stably expressing human GPR17 short isoform; EC80 of agonist MDL29,951; forskolin 15µM; IBMX 0.5mM; 30 minutes at room temperature; read-out: hGPR17 cAMP IC50
Experimental: GPR17 cAMP Assay Protocol:
CHO-K1 cells stably expressing vector containing untagged human GPR17 short isoform (Roche) were cultured at 37°C / 5% CO2 in DMEM (Dulbecco's Modified Eagle Medium):F-12 (1:1) supplemented with 10% foetal bovine serum and 400 µg/ml Geneticin.
Changes in intracellular cyclic adenosine monophosphate (cAMP) levels were quantified using the Nano-TRF Detection Assay kit (Roche Diagnostics, Cat. No. 05214386001). This assay allows for direct cAMP quantification in a homogeneous solution. cAMP is detected based on time-resolved fluorescence energy transfer (TR-FRET) and competitive binding of ruthenylated cAMP and endogenous cAMP to an anti-cAMP monoclonal antibody labeled with AlexaFluor-700. The Ruthenium complex serves as the FRET donor and transfers energy to AlexaFluor-700. The FRET signal is inversely proportional to the cAMP concentration.
CHO-GPR17S cells were detached with Accutase and resuspended in assay buffer consisting of Hank's Balanced Salt Solution (HBSS), 10mM HEPES (4-(2-hydroxyethyl) piperazine-1-ethanesulfonic acid solution) and 0.1% bovine serum albumin (pH 7.4). The cells were seeded in black 384-well plates (Corning) at a density of 10'000 cells / 20µl assay buffer until the addition of compounds.
Test antagonist compounds were serially diluted in dimethyl sulfoxide (DMSO) and spotted in 384-well plates. The compounds were then diluted in HBSS buffer supplemented with an EC80 concentration of MDL29,951 (3-(2-Carboxy-4,6-dichloroindol-3-yl)propionic acid) (GPR17 agonist) plus 3-Isobutyl-1-methylxanthine (IBMX) (0.5mM final concentration) and added to the cells at room temperature. Forskolin (15µM final concentration) was added 5 minutes after the test compounds and the cells were incubated at room temperature for 30 minutes. The assay was stopped by adding cAMP detection mix (containing detergents for cell lysis) for 90 minutes at room temperature.
Cellular cAMP was measured using a Paradigm reader (Molecular Devices). The raw data was used to calculate the FRET signal based on the assay's P-factor as per cAMP kit instructions. The data was normalized to the maximal activity of a reference antagonist and dose response curves were fitted to the percent activity of the test compounds using a sigmoidal dose response model (Genedata Screener).
Results in the hGPR17 cAMP assay are provided for compounds of formula I in Table 1 Table 1: […]

Sequence of human GPR17 short isoform (Q13304 29-367): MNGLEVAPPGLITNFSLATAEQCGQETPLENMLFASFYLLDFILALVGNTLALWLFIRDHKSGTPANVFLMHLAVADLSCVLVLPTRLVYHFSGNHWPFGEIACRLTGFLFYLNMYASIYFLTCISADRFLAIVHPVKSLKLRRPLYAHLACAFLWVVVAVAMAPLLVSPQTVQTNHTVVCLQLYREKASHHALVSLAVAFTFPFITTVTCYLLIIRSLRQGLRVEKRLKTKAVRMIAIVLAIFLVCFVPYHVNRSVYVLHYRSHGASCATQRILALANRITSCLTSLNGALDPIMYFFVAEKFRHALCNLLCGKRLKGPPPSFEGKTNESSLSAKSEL

First: COc1nc(NS(=O)(=O)c2c[nH]c3c(-c4cnn(C)n4)c(Cl)ccc23)nc(OC)c1OC(F)F [Example 107, 6-chloro-N-[5-(difluoromethoxy)-4,6-dimethoxy-pyrimidin-2-yl]-7-(2-methyltriazol-4-yl)-1H-indole-3-sulfonamide]
Second: COc1nc(NS(=O)(=O)c2c[nH]c3c(-c4cnn(C)n4)c(Cl)ccc23)nc(OC)c1OCC(F)F [Example 106, 6-chloro-N-[5-(2,2-difluoroethoxy)-4,6-dimethoxy-pyrimidin-2-yl]-7-(2-methyltriazol-4-yl)-1H-indole-3-sulfonamide]
The IC50 of the first is 2.2-fold higher: 76 nM for the first, 34 nM for the second.

Going from COc1nc(NS(=O)(=O)c2c[nH]c3c(-c4cnn(C)c4)c(Cl)ccc23)nc(OC)c1OCC(F)F [Example 111, 6-chloro-N-[5-(2,2-difluoroethoxy)-4,6-dimethoxy-pyrimidin-2-yl]-7-(1-methylpyrazol-4-yl)-1H-indole-3-sulfonamide] to COc1nc(NS(=O)(=O)c2c[nH]c3c(-c4cnn(C)c4)c(Cl)ccc23)nc(OC)c1OC(F)F [Example 113, 6-chloro-N-[5-(difluoromethoxy)-4,6-dimethoxy-pyrimidin-2-yl]-7-(1-methylpyrazol-4-yl)-1H-indole-3-sulfonamide], the IC50 rises from 53 nM to 82 nM (1.5-fold).

Going from COc1nc(NS(=O)(=O)c2c[nH]c3c(-c4ncc[nH]4)c(F)ccc23)nc(OC)c1OCC(F)F [Example 45, N-[5-(2,2-difluoroethoxy)-4,6-dimethoxy-pyrimidin-2-yl]-6-fluoro-7-(1H-imidazol-2-yl)-1H-indole-3-sulfonamide] to COc1nc(NS(=O)(=O)c2c[nH]c3c(-c4cnccn4)c(F)ccc23)nc(OC)c1OCC(F)F [Example 33, N-[5-(2,2-difluoroethoxy)-4,6-dimethoxy-pyrimidin-2-yl]-6-fluoro-7-pyrazin-2-yl-1H-indole-3-sulfonamide], the IC50 rises from 50 nM to 132 nM (2.6-fold).

Going from COc1nc(NS(=O)(=O)c2c[nH]c3c(-c4cccnn4)c(C)ccc23)nc(OC)c1OCC(F)F [Example 57, N-[5-(2,2-difluoroethoxy)-4,6-dimethoxy-pyrimidin-2-yl]-6-methyl-7-pyridazin-3-yl-1H-indole-3-sulfonamide] to COc1nc(NS(=O)(=O)c2c[nH]c3c(-c4nnccc4C)cccc23)nc(OC)c1OCC(F)F [Example 13, N-[5-(2,2-difluoroethoxy)-4,6-dimethoxy-pyrimidin-2-yl]-7-(4-methylpyridazin-3-yl)-1H-indole-3-sulfonamide], the IC50 falls from 109 nM to 57 nM (1.9-fold). The second is the more potent here.

First: COc1nc(NS(=O)(=O)c2c[nH]c3c(-c4ncc(F)cn4)c(Cl)ccc23)nc(OC)c1OCC(F)F [Example 105, 6-chloro-N-[5-(2,2-difluoroethoxy)-4,6-dimethoxy-pyrimidin-2-yl]-7-(5-fluoropyrimidin-2-yl)-1H-indole-3-sulfonamide]
Second: COc1nc(NS(=O)(=O)c2c[nH]c3c(-c4cncc(C)n4)c(Cl)ccc23)nc(OC)c1OCC(F)F [Example 88, 6-chloro-N-[5-(2,2-difluoroethoxy)-4,6-dimethoxy-pyrimidin-2-yl]-7-(6-methylpyrazin-2-yl)-1H-indole-3-sulfonamide]
The IC50 of the first is 8.2-fold higher: 221 nM for the first, 27 nM for the second. The second is the more potent here.

COc1nc(NS(=O)(=O)c2c[nH]c3c(-c4nnco4)c(Cl)ccc23)nc(OC)c1OCC(F)F [Example 110, 6-chloro-N-[5-(2,2-difluoroethoxy)-4,6-dimethoxy-pyrimidin-2-yl]-7-(1,3,4-oxadiazol-2-yl)-1H-indole-3-sulfonamide] and COc1nc(NS(=O)(=O)c2c[nH]c3c(-c4ccc(C)nn4)c(Cl)ccc23)nc(OC)c1OCC(F)F [Example 63, 6-chloro-N-[5-(2,2-difluoroethoxy)-4,6-dimethoxy-pyrimidin-2-yl]-7-(6-methylpyridazin-3-yl)-1H-indole-3-sulfonamidemide] are within 1.5-fold of each other in IC50: 46 nM for the first, 45 nM for the second.

Going from COc1nc(NS(=O)(=O)c2c[nH]c3c(-c4ncccn4)c(Cl)ccc23)nc(OC)c1Br [Example 75, N-(5-bromo-4,6-dimethoxy-pyrimidin-2-yl)-6-chloro-7-(2-pyrimidyl)-1H-indole-3-sulfonamide] to COc1nc(NS(=O)(=O)c2c[nH]c3c(-c4ncccn4)c(Cl)ccc23)nc(OC)c1CCC#N [Example 79, 6-chloro-N-[5-(2-cyanoethyl)-4,6-dimethoxy-pyrimidin-2-yl]-7-(2-pyrimidyl)-1H-indole-3-sulfonamide], the IC50 falls from 135 nM to 59 nM (2.3-fold). The second is the more potent here.

Compared with COc1nc(NS(=O)(=O)c2c[nH]c3c(-c4cnccn4)c(Br)ccc23)nc(OC)c1OCC(F)F [Example 41, 6-bromo-N-[5-(2,2-difluoroethoxy)-4,6-dimethoxy-pyrimidin-2-yl]-7-pyrazin-2-yl-1H-indole-3-sulfonamide], COc1nc(NS(=O)(=O)c2c[nH]c3c(-c4cnccn4)cccc23)nc(OC)c1OCC(F)F [Example 30, N-[5-(2,2-difluoroethoxy)-4,6-dimethoxy-pyrimidin-2-yl]-7-pyrazin-2-yl-1H-indole-3-sulfonamide] is 8.7-fold higher in IC50: 15 nM for the first, 130 nM for the second. The first is the more potent here.

First: COc1nc(NS(=O)(=O)c2c[nH]c3c(-c4cnco4)c(Cl)ccc23)nc(OC)c1OC(F)F [Example 117, 6-chloro-N-[5-(difluoromethoxy)-4,6-dimethoxy-pyrimidin-2-yl]-7-oxazol-5-yl-1H-indole-3-sulfonamide]
Second: COc1nc(NS(=O)(=O)c2c[nH]c3c(-c4nccnc4C)c(Cl)ccc23)nc(OC)c1OC(F)F [Example 81, 6-chloro-N-[5-(difluoromethoxy)-4,6-dimethoxy-pyrimidin-2-yl]-7-(3-methylpyrazin-2-yl)-1H-indole-3-sulfonamide]
The IC50 of the first is 3.4-fold higher: 106 nM for the first, 31 nM for the second. The second is the more potent here.

COc1nc(NS(=O)(=O)c2c[nH]c3c(-c4nccnc4Cl)c(Cl)ccc23)nc(OC)c1CC(F)F [Example 65, 6-chloro-7-(3-chloropyrazin-2-yl)-N-[5-(2,2-difluoroethyl)-4,6-dimethoxy-pyrimidin-2-yl]-1H-indole-3-sulfonamide] and COc1nc(NS(=O)(=O)c2c[nH]c3c(-c4ncccc4C)c(Cl)ccc23)nc(OC)c1CC(F)F [Example 102, 6-chloro-N-[5-(2,2-difluoroethyl)-4,6-dimethoxy-pyrimidin-2-yl]-7-(3-methyl-2-pyridyl)-1H-indole-3-sulfonamide] are within 1.5-fold of each other in IC50: 39 nM for the first, 42 nM for the second.

COc1nc(NS(=O)(=O)c2c[nH]c3c(-c4nccn4C)cccc23)nc(OC)c1OCC(F)F [Example 7, N-[5-(2,2-difluoroethoxy)-4,6-dimethoxy-pyrimidin-2-yl]-7-(1-methylimidazol-2-yl)-1H-indole-3-sulfonamide] and COc1nc(NS(=O)(=O)c2c[nH]c3c(-c4cccc(C)n4)c(Cl)ccc23)nc(OC)c1OCC(F)F [Example 92, 6-chloro-N-[5-(2,2-difluoroethoxy)-4,6-dimethoxy-pyrimidin-2-yl]-7-(6-methyl-2-pyridyl)-1H-indole-3-sulfonamide] are within 1.5-fold of each other in IC50: 34 nM for the first, 28 nM for the second.

Compared with COc1nc(NS(=O)(=O)c2c[nH]c3c(-c4ccn(C)n4)c(Cl)ccc23)nc(OC)c1OCCF [Example 68, 6-chloro-N-[5-(2-fluoroethoxy)-4,6-dimethoxy-pyrimidin-2-yl]-7-(1-methylpyrazol-3-yl)-1H-indole-3-sulfonamide], COc1nc(NS(=O)(=O)c2c[nH]c3c(-c4cnn(C)n4)c(Cl)ccc23)nc(OC)c1OCCF [Example 109, 6-chloro-N-[5-(2-fluoroethoxy)-4,6-dimethoxy-pyrimidin-2-yl]-7-(2-methyltriazol-4-yl)-1H-indole-3-sulfonamide] is 2-fold higher in IC50: 18 nM for the first, 36 nM for the second. The first is the more potent here.

— patent EP4562003B1, “NOVEL 7-SUBSTITUTED INDOLE SULFONAMIDE DERIVATIVES” (F. Hoffmann-La Roche AG, priority 2022, dated 2024)
